Reference: patent publication US20110045092A1, “CASEIN […] ENCAPSULATING […] ACTIVE AGENTS AND USES THEREOF” (priority 2008, published 2011)
Structures can show the parent of a compound that is named as a salt.

Tests used:
[1] = molecular target: T1, β-CN (Bos taurus, UniProt P02666); assay: Trp 143 fluorescence quenching of β-CN by drug; type: binding, bovine; conditions: for Kd: Trp 143 of β-CN quenched by drug, 1 mg/ml β-CN in PBS pH 7.0, emission 332 nm, read-out: Calculated Kd
T1 construct: β-CN from bovine milk (C6905, purity 90%); purchased Sigma-Aldrich Israel Ltd. C6905; host or cells: bovine milk
T1 sequence (P02666 16-224): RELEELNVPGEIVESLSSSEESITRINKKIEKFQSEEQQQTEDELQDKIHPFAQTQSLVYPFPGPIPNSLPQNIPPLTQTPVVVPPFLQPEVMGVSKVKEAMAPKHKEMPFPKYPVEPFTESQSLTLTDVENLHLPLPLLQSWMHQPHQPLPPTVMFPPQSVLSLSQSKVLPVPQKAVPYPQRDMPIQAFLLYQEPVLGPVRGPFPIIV
Procedure: Tryptophan (Trp) Fluorescence:
Trp 143 is located in the main hydrophobic domain of β-CN. Quenching of protein fluorescence due to energy transfer from this Trp residue to a bound ligand serves to determine the binding affinity.
β-CN-drug interaction was studied by monitoring the changes in the Trp fluorescence emission of β-CN upon addition of the drug. Trp fluorescence was determined using an excitation at 287 nm and emission was detected at 332 nm, with slit widths of 1 nm, using the Fluorolog 3-22 spectrofluoreineter. Intrinsic fluorescence of the Trp residues of β-CN was measured before and after addition of different amounts of each drug ranging between drug: β-CN molar ratio of 0.2:1 to 12:1 at 1 mg/ml β-CN. Changes in Trp fluorescence were used to evaluate the binding of the drug to β-CN. The apparent dissociation constant and the number of drug molecules that are involved in binding of one β-CN molecule were calculated from plots of the fluorescence intensity at 332 nm, expressed as the percentage of the fluorescence of the drug-free β-CN vs. the added drug concentration. The data was analyzed using Matlab (MathWorks), by means of the following equations: […]
where F is the fluorescence intensity at a given added ligand (drug) concentration; F0 the fluorescence intensity at the beginning of the titration; F1 the fluorescence at the end of the titration; [PF] the concentration of the free β-CN; [LF] the concentration of the free ligand, drug; [PL] the concentration of the β-CN-drug complex; Kd and Ka are the dissociation and association constants respectively (Christiaenset al. 2002 European Journal of Biochemistry 269 [12]:2918-2926).
Emission spectra of pure 1 mg/ml β-CN vs. those of drug encapsulated in 1mg/ml at 4:1 drug: β-CN molar ratio, were collected at Trp excitation wavelength 287 nm, using the Fluorolog 3-22 spectrofluorometer.

[2] = cited from earlier work
[3] = molecular target: T1, β-CN; assay: Mitoxantrone fluorescence quenching by β-CN; type: binding, bovine; conditions: 42 μM mitoxantrone
Procedure: The β-CN-mitoxantrone interaction was further studied by monitoring the changes in the mitoxantrone fluorescence emission upon addition of β-CN. For this purpose a 3-D fluorescence spectra analysis of mitoxantrone was performed using the Fluorolog 3-22. Mitoxantrone fluorescence emission was measured using 609 nm and 675 nm excitation and emission, respectively, and slit widths of 1 nm. Intrinsic fluorescence of 42 μM mitoxantrone was measured before and after addition of different amounts of β-CN. The β-CN concentration range was 0.1-3.8 mg/ml. The apparent dissociation constant and the number of β-CN molecules bound per mitoxantrone molecule were calculated from plots of the fluorescence intensity at 675 nm expressed as the percentage of the fluorescence of the β-CN-free mitoxantrone vs. the added β-CN concentration. Data were analyzed as detailed herein above for Trp quenching.

[4] = Visual appearance of drug solution with and without β-CN; type: physicochemical
Excerpt: In order to evaluate the visual appearance of the tested drug when encapsulated within the β-CN system as compared to the non-encapsulated drug solubilized at a similar concentration, in PBS and DMSO (i.e. without the addition of β-CN), photographs were taken of both solutions and their appearance was compared.

[5] = Zeta potential analysis; type: physicochemical; conditions: concentration range studied; PBS pH 7.0
Procedure: Particle size distribution, mean Gaussian diameter, and zeta potential were determined by a combined dynamic light scattering (DLS) and zeta potential analyzer (NICOMP 380, Particle Sizing Systems (Agilent Technologies, Inc.), Santa Barbara, Calif., USA) at 25° C.
Zeta potential was measured in PBS solutions without NaCl, under a 3 V/cm e-field, using phase analysis mode. The zeta potential was calculated from the electrophoretic mobility (EM) using the Smoluchowski model (which is a reasonable approximation given that the radius of the particles (a) was around 125 nm, and the ionic strength during the EM measurement was calculated to be about 50 mM, i.e. the Debye length (κ^−1) was around 1.4 nm, so that the product κ^−1a=92>>1).

[6] = 504 μM drug in PBS with 4.55-5.6% DMSO

With vinblastine sulfate salt as the compound, how does the Kd ([1]; excitation 287 nm, model fit) read?
Its Kd is 50.9 µM.

And the “n (moles of quencher per moles of fluorophore)” value ([1]; drug molecules per β-CN molecule, Trp quenching, model fit)?
Its value is 5.25±0.57.

What about the “initial overall Trp emission intensity quenched” value ([1]; vinblastine:β-CN 0.2:1 to 10:1 at 1 mg/ml β-CN) of the same compound?
Its value is “About 80%”.

And the pKa [2]?
Its pKa is 5.5.

With O=C1c2c(O)ccc(O)c2C(=O)c2c(NCCNCCO)ccc(NCCNCCO)c21 [mitoxantrone, Mitoxantrone dihydrochloride] as the compound, how does the Kd ([1]; excitation 287 nm, model fit) read?
Its Kd is 8.43 µM.

What about the “over-all Trp emission after quenching, of its initial intensity” value ([1]; plateau at mitoxantrone:β-CN 6:1, 1 mg/ml β-CN) of the same compound?
The value was 20%.

What about the “over-all mitoxantrone emission quenched by β-CN, up to % of its initial intensity” value ([3]; plateau at 0.7 mg/ml β-CN) of the same compound?
The value was “up to 65%”.

What about the Kd ([3]; mitoxantrone fluorescence quenched by β-CN, β-CN 0.1-3.8 mg/ml, excitation 609 nm, emission 675 nm, model fit, read-out: Calculated Kd) of the same compound?
Its Kd is 0.726 µM.

What about the “Log P” value [2] of the same compound?
The value was “higher than 2”.

Which results are given for CC(=O)O[C@H]1C(=O)[C@@]2(C)[C@H]([C@H](OC(=O)c3ccccc3)[C@]3(O)C[C@H](OC(=O)[C@H](O)[C@@H](NC(=O)c4ccccc4)c4ccccc4)C(C)=C1C3(C)C)[C@]1(OC(C)=O)CO[C@@H]1C[C@@H]2O [Paclitaxel, paclitaxel]?
change of β-CN Trp-143 emission upon encapsulation ([1]; 4:1 Paclitaxel:β-CN, 1 mg/ml β-CN, excitation 287 nm): decrease in emission intensity; visual appearance, without β-CN ([4]; 84 μM drug in PBS and 0.8% DMSO): turbid, unstable and aggregated system

What does the source list for CCc1c2c(nc3ccc(OC(=O)N4CCC(N5CCCCC5)CC4)cc13)-c1cc3c(c(=O)n1C2)COC(=O)[C@]3(O)CC [irinotecan, irinotecan hydrochloride trihydrate]?
visual appearance, without β-CN [4, 6]: turbid, unstable and aggregated solution; pKa [2]: 8.1

With CC(=O)O[C@@]12CO[C@@H]1C[C@H](O)[C@@]1(C)C(=O)[C@H](O)C3=C(C)[C@@H](OC(=O)[C@H](O)[C@@H](NC(=O)OC(C)(C)C)c4ccccc4)C[C@@](O)([C@@H](OC(=O)c4ccccc4)[C@H]21)C3(C)C [Docetaxel, Docetaxel trihydrate] as the compound, how does the “zeta potential of drug in PBS without β-CN” value [5] read?
The value was “around −30 mV”.

And the “visual appearance, without β-CN” value [4, 6]?
Its value is “turbid, unstable and aggregated solution”.
